# Assay results taken from patent US10434077B2, “Glycolic acid and/or D-lactic acid for the treatment of neurodegenerative diseases” (MAX-PLANCK-GESELLSCHAFT ZUR FOERDERUNG DER WISSENSCHAFTEN …, priority 2014, dated 2019).
# Entries after “also recorded” stand apart in the source; their conditions may differ. Counter-ions that a name gives are not always drawn. Like-named read-outs stand apart in the source and are kept apart here.
# What was measured:
# [1] = system: DJ-1 RNAi HeLa cells; test: Mitotic rounding pressure of DJ-1 RNAi HeLa cells (AFM microcantilever); assay type: cell-based, human; conditions: for rescue of the lower pressure phenotype in low or no glucose medium: HeLa kept 2 or more passages in low or no glucose medium before RNAi, measured 1 hour after addition; for rescue of the reduced rounding pressure of mitotic DJ-1 RNAi cells: HeLa, substance added to medium, concentration not given; for rescue of the lower pressure phenotype at 10 mM: RNAi-treated mitotic HeLa cells, 10 mM supplement
# Protocol: (§1) HeLa-Kyoto cells stably expressing histone H2B-EGFP and mCherry-CAAX (clone 2B4), their parental cells, and HeLa-Kyoto expressing mouse DJ-1 transgene were used. Also, mouse embryonic fibroblast (MEF) (Pham et al., 2010) cells were used. Cells were maintained in DMEM supplemented with 10% fetal bovine serum (FBS), 2 mM GlutaMAX, 100 unit/ml penicillin, 100 μg/ml streptomycin, plus additional antibiotics for the transgene (0.5 mg/ml Geneticin for H2B-EGFP and mouse DJ-1 BAC transgene; 0.5 pug/ml puromycin for mCherry-CAAX), at 37° C. in a 5% CO2 environment. The DMEM with high glucose (5 g/1) was used unless specifically mentioned (e.g. FIG. 14). For atomic force microscopy (AFM) measurements of mammalian cells, a CO2-independent medium containing 4 mM sodium bicarbonate and 20 mM HEPES Was used. HeLa Cells Were RNAi-transfected with 160 nM endoribonuclease-digested small interfering RNA (MISSION esiRNA, Sigma) using oligofectamine reagent (Invitrogen). Paraquat (PQ^2+) was added 24 hours after RNAI. Cells were assayed after 48 hours from RNAI.
# (§2) Cell rounding pressure analysis with microcantilevers Cells were grown on a glass-base dish (FD35, World Precision Instruments) with a silicon spacer, which was prepared from μ-Chamber 12 well (ibidi), in the center. Medium was replaced with the CO2-independent medium, then the dish was mounted on the stage of a light microscope (AxioObserver Z1 or Axiovert200, Zeiss) equipped with a 20× objective (Plan Apochromat, NA=0.80). To measure the force of the mitotic cell, a tipless microcantilever (NSC12/CSC37-B with a nominal spring constant of 0.3 N/m, MikroMasch, Estonia) mounted on a glass block of the AFM head (NanoWizard I or II, JPK instruments, Berlin) was used. Setup and calibration were done before every experiment; see Stewart et al (Stewart at al., 2012) for the details of the procedures. In a quick force measurement illustrated in FIG. 5A, the cantilever was set at […] above the glass dish and moved over the mitotically arrested cells to measure the equilibrium force. Measuring the cellular force and pressure through mitosis was done as described (Stewart at al., 2012, Stewart at al., 2011). Otherwise the cell pressure and volume were measured in a constant-height assay, as illustrated in FIG. 5B: the cantilever was first set at 14 μm height and placed over a metaphase cell to record rounding force. The cantilever was then brought down to 8 μm height at 0.1 μmu/sec, to measure peak and equilibrium forces. The maximal cross-section area of the cell was measured from the DIC or mCherry-CAAX image to calculate cell pressure and volume. Calculation of cell pressure and volume, and the contact area to the Cantilever was done as described (Stewart et al., 2012; Stewart et al., 2011). In every experiment, RNAi penetrance was confirmed by lower pressure of MYH9 RNAI-treated cells (Toyoda at al., 2011).
# [2] = system: mitotic MEF cells (wild type and DJ-1 knock-out); test: Mitotic rounding pressure of mouse embryonic fibroblasts (AFM); assay type: cell-based; conditions: for rescue of the reduced rounding pressure of mitotic DJ-1-deficient MEFs: DJ-1 knock-out MEFs, concentration not given; for rescue of the lower pressure phenotype at 10 mM: mitotic DJ-1 KO MEF cells, measured after 1 hour; for rescue of the lower pressure phenotype at 10 mM / effect on pressure of mitotic WT MEFs (negative effects on cell mechanics): 10 mM supplement; for effect on pressure of mitotic WT MEFs (negative effects on cell mechanics): wild type MEFs
# Protocol: as §1, §2
# [3] = system: DJ-1 GLO1 double RNAi-treated cells; test: Mitotic rounding pressure of DJ-1 GLO1 double RNAi-treated cells (AFM); assay type: cell-based, human; conditions: both glyoxalases DJ-1 and GLO1 knocked down
# Protocol: as §1, with “HeLa Cells Were RNAi-transfected with 160 nM endoribonuclease-digested small interfering RNA (MISSION esiRNA, Sigma) using oligofectamine reagent (Invitrogen). Paraquat (PQ^2+) was added 24 hours after RNAI. Cells were assayed after 48 hours from RNAI.” left out
# Cell rounding pressure analysis with microcantilevers Cells were grown on a glass-base dish (FD35, World Precision Instruments) with a silicon spacer, which was prepared from μ-Chamber 12 well (ibidi), in the center. […] Otherwise the cell pressure and volume were measured in a constant-height assay, as illustrated in FIG. 5B: the cantilever was first set at 14 μm height and placed over a metaphase cell to record rounding force. […] The maximal cross-section area of the cell was measured from the DIC or mCherry-CAAX image to calculate cell pressure and volume. […]
# [4] = system: DJ-1 RNAi HeLa cells; assay type: cell-based, human; conditions: for rescue of the circular mitochondrial phenotype: paraquat-treated DJ-1 RNAi HeLa cells, supplements for 24 hours
# Protocol: as §1
# To film the osmotically challenged HeLa cells, a DeltaVision system (Applied Precision) was used, equipped with an Olympus IX-71 Inverted microscope and a 40× (UPIanApo, NA=1.00) objective. Time-lapse images were acquired at 1-min intervals except during osmotic shock treatment (equal volume of water for hypotonic shock; equal volume of the AFM medium containing 2.86% (w/v) xylose for hypertonic shock). Deconvolved and maximally projected images were analyzed manually on Image.J to annotate the radius and the volume of the round objects (i.e. mitotic cells), assuming that the cells were spherical (Stewart et al., 2011). To image mitochondria of HeLa cells, MitoTracker Red CMXRos was added at 150 nM and fixed with 3% (v/w) paraformaldehyde in PBS, 1 mM MgCl2, and 5 mM EGTA. Chromatin was counter-stained by 1 μg/ml Hoechst33342. They were imaged on the DeltaVision system using a 60× objective (PlanApo N, NA=1.42, Olympus), and deconvolved and maximally projected images were used for the analysis. Due to high background of MitoTracker in the center of the cell, mitochondria in a 15×15 um area in the periphery were manually annotated on Image.J software.
# [5] = system: primary mesencephalic dopaminergic neurons from wild type mouse embryos; test: In vitro survival of primary dopaminergic (TH+) neurons, wild type; assay type: cell-based; conditions: 3 mM glucose, 10 mM GA, 10 mM DL, 10 mM LL, TH+ cells relative to no supplement
# Protocol: (§3) Briefly, brain mesencephalons from E14.5 C57JBL6 or DJ-1 embryos were dissected under the microscope and digested with Trypsin-EDTA (Sigma-Aldrich). The trypsin reaction was stopped by adding the basic medium (BM) containing Neurobasal A medium (Gibco), 1 mg/ml penicillin/streptomycin, 10% (v/v) fetal calf serum (Invitrogen) and 2 mM L-glutamine and cells were mechanically dissociated using a fire-polished Pasteur pipette. Medium was fully replaced by centrifuging for 5 min. at 1200 rpm, aspiring the supernatant and adding 8 ml of the fresh BM to the pellet. […] The same volume of medium containing the different treatment substances was added 4 hours after plating to obtain the following treatment concentrations: control, 3 mM glucose, 10 mM GA, 10 mMDL and 10 mM LL. 24 hours later ⅓ of the medium was replaced with fresh BM. On DIV3 (day-in-vitro-culture 3) half of the medium was replaced with B27 medium containing Neurobasal A medium, 1 mg/ml penicillin/streptomycin, 2 mM L-Glutamine (Sigma-Aldrich) and B-27 supplement (Life Technologies) and on DIV5 all medium was replaced by B27 medium.
# (§4) Dopaminergic TH^+ neurons were observed using an inverted fluorescence microscope (Axiovert 200M, Zeiss) under a 10× objective (PlanApo, NA=0.45). The diameter of every well was scanned in two perpendicular directions (i.e. top to bottom and left to right) and total TH^+ neurons were counted for every well.
# [6] = system: dopaminergic neurons from DJ-1 knock out mice; test: In vitro survival of primary dopaminergic (TH+) neurons, DJ-1 knock out; assay type: cell-based, mouse; conditions: DJ-1 KO/mutant; 3 mM glucose, 10 mM GA, 10 mM DL
# Protocol: as §3, §4
# [7] = system: primary dopaminergic neurons from wild-type E14.5 embryos treated with PQ2+; conditions: 12.5 μM PQ2+ for 72 hours, 10 mM supplement
# Protocol: Briefly, brain mesencephalons from E14.5 C57JBL6 or DJ-1 embryos were dissected under the microscope and digested with Trypsin-EDTA (Sigma-Aldrich). The trypsin reaction was stopped by adding the basic medium (BM) containing Neurobasal A medium (Gibco), 1 mg/ml penicillin/streptomycin, 10% (v/v) fetal calf serum (Invitrogen) and 2 mM L-glutamine and cells were mechanically dissociated using a fire-polished Pasteur pipette. Medium was fully replaced by centrifuging for 5 min. at 1200 rpm, aspiring the supernatant and adding 8 ml of the fresh BM to the pellet. […] The same volume of medium containing the different treatment substances was added 4 hours after plating to obtain the following treatment concentrations: control, 3 mM glucose, 10 mM GA, 10 mMDL and 10 mM LL. 24 hours later ⅓ of the medium was replaced with fresh BM. […]
# as §4
# [8] = system: C. elegans ΔΔdjr double mutant and glod-4 single mutant larvae; assay type: in vivo
# Protocol: (Brenner, 1974). […] All mutants were outcrossed at least twice.
# Mitochondria staining was performed as previously described. Briefly, MitoTracker Deep Red or CMXROS (M22426, M7512, Life Technologies) were dissolved in DMSO at a concentration of 5 mM and kept at −20° C. as a stock solution. On the day of microscopy worms were incubated in a 1:1000 diluted MitoTracker for 45 min at room temperature. Worms were then paralyzed with 1 mM Levamizol (Sigma-Aldrich), placed on slides covered with a thin layer of NGM medium on top of which the coverslip (22×22 mm, Menzel-Glaser #1) was fixed using nail lack.
# Microscopy images from live paralyzed worm larvae stained with MitoTracker were taken using a confocal microscope (LSM510, Zeiss, Germany). Samples were excited using a 514 (MitoTracker CMXRos) or a 647 (MitoTracker Deep Red) nm lasers and two channels, one BP505-550 or LP650 and the BF channel were used to acquire the images. Gain was maintained between 450 and 515 for all samples to ensure the detection of signal intensity differences.
# [9] = system: C. elegans larvae (ΔΔdjr, glod-4)
# Protocol: (A) The differential expression of djr-1.1, djr-1.2 and glod-4 was tested by RT-PCR in four replicates. […] (B) Length of the worms treated with PQ^2+. Bars and error bars show the mean and SD, respectively. […] Every strain was compared to its control at different PQ^2+ concentrations by two-way ANOVA followed by Tukey's honestly significant differences (HSD) test. (C) Worm larvae treated with PQ or control. Scale bar, 250 μm. (D) survival of the worm larvae treated with 200 μM paraquat and 1 mM of the Indicated supplements. Bars and error bars show the mean and SD, respectively. […] Every strain was compared to its own control by two-way ANOVA followed by Tukey's HSD test. Data were normalized by Freeman-Tukey's double arcsine transformation prior to ANOVA. *p<0.05; **p<0.01; ***p<0.001.
# All C. elegans strains were maintained on NGM agar plates seeded with Escherichia coli NA22 at 15° C. […] Mutant strains djr-1.1(tm918), djr-1.2(tm951) and glod4(tm1266) were obtained from National Bioresource Project, Japan. Wild type (N2) and daf-2 mutant strains were obtained from Caenorhabditis Genetics Center, USA. All mutants were outcrossed at least twice. DJ-1 double mutant djr-1.1(tm918), djr-1.2(tm951), abbreviated as ΔΔdjr, was achieved by crossing both single mutants. This strain was then further crossed to daf-2 to generate daf-2; ΔΔdjr triple mutant.
# [10] = estimated; cited from earlier work
# [11] = toxicology study; cited from earlier work
structure (smiles),measurement,setting,value
"NC(=O)c1ccc(N)nc1 [6-aminonicotinamide, reference compound]",effect on the glucose-mediated rescue of pressure in DJ-1 RNAi cells,"[1]; mitotic HeLa, measured after 1 hour",inhibited
"C[C@@H](O)C(=O)O [DL, D-(−)-lactic acid]",rescue of the lower pressure phenotype in low or no glucose medium,[1],rescue of the lower pressure phenotype was observed
same,rescue of the reduced rounding pressure of mitotic DJ-1 RNAi cells,[1],could rescue the reduced pressure
same,rescue of the lower pressure phenotype at 10 mM,[1]; measured after 1 hour,rescued the lower pressure phenotype
same,rescue of the reduced rounding pressure of mitotic DJ-1-deficient MEFs,[2],could rescue the reduced pressure
same,rescue of the lower pressure phenotype at 10 mM,[2],rescued the lower pressure phenotype
same,rescue of the pressure phenotype in DJ-1 and GLO1 double knock-down cells,[3],could rescue
same,rescue of the circular mitochondrial phenotype,[4],rescued
same,rescue of the circular mitochondrial phenotype,[4]; listed as D-lactate,rescue mitochondria structure
same,in vitro survival of dopaminergic (TH+) neurons,[5],stimulated; also recorded: stimulate the survival
same,in vitro survival of dopaminergic (TH+) neurons,[5]; listed as D-lactate,support viability
same,survival of dopaminergic neurons from DJ-1 knock out mice,[6],could stimulate neuronal survival; also recorded: stimulate the survival
same,rescue of the toxic effect of paraquat on dopaminergic neurons,[7],significantly rescue the toxic effect of paraquat
"O=C(O)CO [GA, 2-hydroxyethanoic acid]",rescue of the lower pressure phenotype in low or no glucose medium,[1],rescue of the lower pressure phenotype was observed
same,rescue of the reduced rounding pressure of mitotic DJ-1 RNAi cells,[1],could rescue the reduced pressure
same,rescue of the lower pressure phenotype at 10 mM,[1]; measured after 1 hour,rescued the lower pressure phenotype
same,rescue of the reduced rounding pressure of mitotic DJ-1-deficient MEFs,[2],could rescue the reduced pressure
same,rescue of the lower pressure phenotype at 10 mM,[2],rescued the lower pressure phenotype
same,effect on pressure of mitotic WT MEFs (negative effects on cell mechanics),[2],decreases pressure
same,rescue of the pressure phenotype in DJ-1 and GLO1 double knock-down cells,[3],could rescue
same,rescue of the circular mitochondrial phenotype,[4],rescued
same,rescue of the circular mitochondrial phenotype,[4]; listed as glycolate,rescue mitochondria structure
same,reversal of circular mitochondria and diminished MitoTracker staining,[8]; paraquat-treated ΔΔdjr double mutant and glod-4 single mutant larvae,reversed
same,restoration of viability of ΔΔdjr mutant larvae,[9]; in vivo,restored
same,in vitro survival of dopaminergic (TH+) neurons,[5],stimulated; also recorded: stimulate the survival
same,in vitro survival of dopaminergic (TH+) neurons,[5]; listed as Glycolate,support viability
same,survival of dopaminergic neurons from DJ-1 knock out mice,[6],could stimulate neuronal survival; also recorded: stimulate the survival
"C[C@H](O)C(=O)O [LL, L-(+)-lactic acid, reference compound]",rescue of the reduced rounding pressure of mitotic DJ-1 RNAi cells,[1],had no effect
same,rescue of the reduced rounding pressure of mitotic DJ-1-deficient MEFs,[2],had no effect
same,rescue of the lower pressure phenotype at 10 mM,[2],"but not LL, rescued the lower pressure phenotype"
same,effect on pressure of mitotic WT MEFs (negative effects on cell mechanics),[2],decreases pressure
OCCOCCO [diethylene glycol],minimum toxic dose,[10],0.14 mg glycolic acid per kg of body weight
"NC(=O)CC[C@H](N)C(=O)O [glutamine, reference compound]",rescue of the reduced rounding pressure of mitotic DJ-1 RNAi cells,[1],"neither pyruvate, which is produced from glucose, nor glutamine, which can enter the Krebs cycle, rescued the DJ-1 pressure phenotype"
"CC(O)C(=O)O (stereo not shown) [lactic acid, 2-hydroxypropanoic acid]",amount declared as harmless,[11],about 8 g/day
"C[n+]1ccc(-c2cc[n+](C)cc2)cc1 [paraquat, reference compound]",effect of paraquat on mitochondrial structure,"[4]; low doses of paraquat, DJ-1 RNAi HeLa cells",disrupted mitochondrial structure
same,effect of paraquat on mitochondria of worm larvae,[8]; reproductive larvae of C. elegans,disrupted mitochondria
same,effect of paraquat on viability of glod-4 mutant larvae,"[9]; glod-4, 200 μM paraquat",not affected
same,effect of paraquat on viability of ΔΔdjr mutant larvae,"[9]; ΔΔdjr, 200 μM paraquat",decreased viability
"CC(=O)C(=O)O [pyruvate, 2-oxopropanoic acid salt, reference compound]",rescue of the reduced rounding pressure of mitotic DJ-1 RNAi cells,[1],"neither pyruvate, which is produced from glucose, nor glutamine, which can enter the Krebs cycle, rescued the DJ-1 pressure phenotype"
same,rescue of the circular mitochondrial phenotype,[4],cannot rescue the circular phenotype
